Activity calls are given as the source filed them. No cut-off for these calls is given here.
Key:
Rattus norvegicus = species: Rattus norvegicus; assay: Inhibition of immobilized rat intestinal alpha-glucosidase using 4-nitrophenyl-alpha-D-glucopyranoside as substrate assessed as enzyme activity after 30 mins by spectrophotometry relative to control; set-up: concentration or dose not given beside the values
Sus scrofa = species: Sus scrofa; assay: Mixed-type inhibition of pig pancreas soluble alpha-amylase using 4-nitrophenyl-alpha-D-maltopentaoside as substrate assessed as formation of inactive enzyme-inhibitor complex after 30 mins by spectrophotometry
[1] = […] inhibition of pig pancreas soluble alpha-amylase using 4-nitrophenyl-alpha-D-maltopentaoside as substrate assessed as enzyme-substrate-inhibitor dissociation constant after 30 mins by double reciprocal plot method; set-up: species or system Sus scrofa
[2] = […] inhibition of pig pancreas soluble alpha-amylase using 4-nitrophenyl-alpha-D-maltopentaoside as substrate assessed as enzyme-inhibitor dissociation constant after 30 mins by double reciprocal plot method; set-up: species or system Sus scrofa
[3] = Inhibition of pig pancreas soluble alpha-amylase using 4-nitrophenyl-alpha-D-maltopentaoside as substrate after 30 mins by spectrophotometry; set-up: species or system Sus scrofa

| SMILES | Activity (Rattus norvegicus) [%] | inhibition (Sus scrofa) | Ki [1] [µM] | Ki [2] [µM] | IC50 [3] [µM] |
| --- | --- | --- | --- | --- | --- |
| C[C@H]1O[C@H](O[C@H]2[C@H](O)[C@@H](O)[C@@H](O[C@H]3[C@H](O)[C@@H](O)C(O)O[C@@H]3CO)O[C@@H]2CO)[C@H](O)[C@@H](O)[C@@H]1N[C@H]1C=C(CO)[C@@H](O)[C@H](O)[C@H]1O (some centres not stated) | 34.4 |  |  |  |  |
| O=C1OC[C@@H](Cc2cccc(O)c2)[C@@H]1Cc1cccc(O)c1 [(+)-ENTEROLACTONE] | 73.9 |  |  |  | 10.9 |
| COc1cc(C[C@H](CO[C@@H]2O[C@H](CO)[C@@H](O)[C@H](O)[C@H]2O)[C@@H](CO[C@@H]2O[C@H](CO)[C@@H](O)[C@H](O)[C@H]2O)Cc2ccc(O)c(OC)c2)ccc1O [(+)-SECOISOLARICIRESINOLDIGLUCOSIDE] | 74.3 |  |  |  | 15.7 |

Continued by falling IC50 [3], values first:

| Activity (Rattus norvegicus) [%] | inhibition (Sus scrofa) | Ki [1] [µM] | Ki [2] [µM] | IC50 [3] [µM] | SMILES |
| --- | --- | --- | --- | --- | --- |
| 72.4 |  |  |  | 9.5 | COc1cc(C[C@@H](CO)[C@H](CO)Cc2ccc(O)c(OC)c2)ccc1O [(+)-SECOISOLARICIRESINOL] |
| 69.9 | Active | 40.3 | 94.1 | 8.6 | OC[C@@H](Cc1cccc(O)c1)[C@@H](CO)Cc1cccc(O)c1 [(+)-ENTERODIOL] |
